The record followed here is patent US20060074061A1, “Formulations of glucocorticoids to treat pathologic ocular angiogenesis” (priority 2003, published 2006).

The experiment can be described thus: Topical anecortave acetate in patients with glucocorticoid induced ocular hypertension (IOP). The format is in vivo, human. The following applies: patients (n=15) with glucocorticoid induced ocular hypertension; 1% eye drops topically three times per day for up to 12 weeks; glucocorticoid medication continued; IOP before treatment 29 mm Hg; significantly reduced. The procedure: Patients (η=15) with documented glucocorticoid induced ocular hypertension were treated topically with 1% anecortave acetate eye drops three times per day for up to 12 weeks. The patients continued to receive their glucocorticoid medication.

With `CC(=O)OCC(=O)[C@@]1(O)CC[C@H]2[C@@H]3CCC4=CC(=O)CC[C@]4(C)C3=CC[C@@]21C` [anecortave acetate, 4,9(11)-pregnadien-17α,21-diol-3,20dione-21-acetate], the “IOP after anecortave acetate treatment” value was 19-22 mm Hg.
